# pIC50: −log10 of the molar value.
# Tests used:
# Type in all cases: biochemical
# [1] = target: T1, KIAA 1361 (baculovirus expressed human KIAA 1361 kinase domain 2-322) (Homo sapiens, UniProt Q7L7X3); assay: KIAA 1361 Luciferase-Coupled Chemiluminescent Kinase assay (LCCA); conditions: 2 μM ATP, 10 μM MBP, 12 nM KIAA 1361, 2 hours; read-out: KIAA1361 inhibition IC50
# T1 construct: human KIAA 1361 kinase domain 2-322; made in house
# T1 sequence (Q7L7X3 2-322): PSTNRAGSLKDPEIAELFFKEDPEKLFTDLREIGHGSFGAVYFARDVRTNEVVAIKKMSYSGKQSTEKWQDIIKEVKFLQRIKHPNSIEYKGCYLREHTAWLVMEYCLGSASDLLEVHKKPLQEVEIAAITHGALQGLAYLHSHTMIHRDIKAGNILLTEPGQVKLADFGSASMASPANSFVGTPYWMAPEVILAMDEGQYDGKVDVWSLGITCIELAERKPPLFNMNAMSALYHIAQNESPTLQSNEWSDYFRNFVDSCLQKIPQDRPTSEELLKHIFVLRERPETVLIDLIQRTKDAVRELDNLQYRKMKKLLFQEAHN
# In short: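 KIAA 1361 kinase domain 2-322 (baculovirus, 12 nM) with 2 μM ATP and 10 μM MBP in Tris pH 7.5, MgCl2, MnCl2; 2 h, ambient. Remaining ATP read by luciferase chemiluminescence; 10 concentrations, IC50 by four-parameter fit.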
# JIK = target: T2, JIK (Homo sapiens, UniProt Q9H2K8); assay: JIK Luciferase-Coupled Chemiluminescent Kinase assay (LCCA); conditions: 2 μM ATP, 10 μM MBP, 6 nM JIK, 2 hours; read-out: JIK inhibition IC50
# T2 construct: 6 nM JIK (baculovirus expressed human KIAA 1361 kinase domain2-318); made in house
# T2 sequence (Q9H2K8 2-318): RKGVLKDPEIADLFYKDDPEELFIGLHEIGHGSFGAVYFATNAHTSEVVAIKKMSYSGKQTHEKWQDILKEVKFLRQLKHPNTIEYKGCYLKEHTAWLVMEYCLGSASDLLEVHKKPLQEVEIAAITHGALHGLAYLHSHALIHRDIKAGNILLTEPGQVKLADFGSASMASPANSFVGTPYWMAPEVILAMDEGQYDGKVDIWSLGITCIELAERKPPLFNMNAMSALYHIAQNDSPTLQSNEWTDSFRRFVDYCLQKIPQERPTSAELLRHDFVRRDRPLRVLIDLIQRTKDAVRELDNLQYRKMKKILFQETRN
# In short: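 Baculovirus-expressed human KIAA 1361 kinase domain 2-318 at 6 nM, with 10 μM MBP and 2 μM ATP in Tris pH 7.5 with Mg/Mn, ran 2 h at ambient temperature. Remaining ATP was read by luciferase chemiluminescence. IC50 comes from a 10-concentration four-parameter fit.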
# TAO = target: T3, TAO (Homo sapiens, UniProt Q9UL54); assay: TAO Luciferase-Coupled Chemiluminescent Kinase assay (LCCA); conditions: 2 μM ATP, 10 μM MBP, 12 nM TAO, 2 hours; read-out: TAO inhibition IC50
# T3 sequence (Q9UL54 1-1235): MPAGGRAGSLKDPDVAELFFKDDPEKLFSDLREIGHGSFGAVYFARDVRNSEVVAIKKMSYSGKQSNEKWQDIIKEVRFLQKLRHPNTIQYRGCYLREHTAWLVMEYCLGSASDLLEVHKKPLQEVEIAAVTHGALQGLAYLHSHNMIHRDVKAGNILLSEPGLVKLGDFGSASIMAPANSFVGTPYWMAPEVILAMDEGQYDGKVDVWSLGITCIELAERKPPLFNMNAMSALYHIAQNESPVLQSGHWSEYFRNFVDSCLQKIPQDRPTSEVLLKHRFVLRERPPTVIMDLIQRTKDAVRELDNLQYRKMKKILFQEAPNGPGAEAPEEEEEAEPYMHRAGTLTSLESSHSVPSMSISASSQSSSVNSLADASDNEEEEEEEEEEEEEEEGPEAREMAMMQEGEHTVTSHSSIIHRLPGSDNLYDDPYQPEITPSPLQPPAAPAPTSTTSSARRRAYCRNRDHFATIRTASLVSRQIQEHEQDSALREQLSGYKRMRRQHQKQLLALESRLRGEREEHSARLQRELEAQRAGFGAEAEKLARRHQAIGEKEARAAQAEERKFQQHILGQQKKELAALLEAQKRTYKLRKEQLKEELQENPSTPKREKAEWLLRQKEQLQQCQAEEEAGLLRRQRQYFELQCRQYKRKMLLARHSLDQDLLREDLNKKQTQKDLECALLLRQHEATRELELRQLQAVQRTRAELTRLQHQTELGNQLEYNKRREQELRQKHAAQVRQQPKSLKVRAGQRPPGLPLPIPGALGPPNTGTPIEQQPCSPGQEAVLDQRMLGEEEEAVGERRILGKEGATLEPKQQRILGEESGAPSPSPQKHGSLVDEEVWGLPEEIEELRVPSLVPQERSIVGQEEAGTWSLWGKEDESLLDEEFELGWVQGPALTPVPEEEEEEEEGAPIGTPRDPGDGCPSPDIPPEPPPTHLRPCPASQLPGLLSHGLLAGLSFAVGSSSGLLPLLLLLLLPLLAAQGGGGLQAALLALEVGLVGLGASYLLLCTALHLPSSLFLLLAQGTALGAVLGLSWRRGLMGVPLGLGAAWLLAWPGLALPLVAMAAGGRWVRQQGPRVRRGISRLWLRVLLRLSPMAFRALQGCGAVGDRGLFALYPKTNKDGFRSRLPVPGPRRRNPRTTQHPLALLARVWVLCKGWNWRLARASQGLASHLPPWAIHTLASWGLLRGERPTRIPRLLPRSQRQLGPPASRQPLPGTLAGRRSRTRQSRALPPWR
SMILES,pIC50 [1],pIC50 (JIK),pIC50 (TAO)
"O=C(NC(C(=O)NC1CCCc2ccccc21)c1cccnc1)c1ccc(/N=N/c2ccccc2)cc1 (stereo not drawn) [Entry 26, N-[2-oxo-1-pyridin-3-yl-2-(1,2,3,4-tetrahydronaphthalen-1-ylamino)ethyl]-4-[(E)-phenyldiazenyl]benzamide]",5.30 to 6.30,6.30 to 7.30,5.30 to 6.30
"CCCCCCOc1ccc(C(=O)NC(C)C(=O)NC2CCc3ccccc3C2)cc1 (stereo not drawn) [Entry 36, 4-(hexyloxy)-N-[1-methyl-2-oxo-2-(1,2,3,4-tetrahydronaphthalen-2-ylamino)ethyl]benzamide]",< 5.30,6.30 to 7.30,< 5.30
"O=C(CNC(=O)c1ccc2ccccc2c1)NC1CCCc2ccccc21 (stereo not drawn) [Entry 44, N-[2-oxo-2-(1,2,3,4-tetrahydronaphthalen-1-ylamino)ethyl]naphthalene-2-carboxamide]",5.30 to 6.30,5.30 to 6.30,< 5.30
"O=C(CC(NC(=O)c1ccccc1)c1ccccc1)NCC(=O)NC1CCCc2ccccc21 (stereo not drawn) [Entry 81, N-(3-oxo-3-{[2-oxo-2-(1,2,3,4-tetrahydronaphthalen-1-ylamino)ethyl]amino}-1-phenylpropyl)benzamide]",< 5.30,< 5.30,< 5.30
"CCCCc1ccc(NC(=O)N2CCC[C@H]2C(=O)NCc2ccc(Cl)c(Cl)c2)cc1 [Entry 22, (2S)-N˜-1˜-(4-butylphenyl)-N˜2˜-[(3,4-dichlorophenyl)methyl]pyrrolidine-1,2-dicarboxamide]",6.30 to 7.30,6.30 to 7.30,5.30 to 6.30
"O=C(NC(C(=O)NC1CCCc2ccccc21)c1cccnc1)c1ccc(-n2cncn2)cc1 (stereo not drawn) [Entry 16, N-[2-oxo-1-pyridin-3-yl-2-(1,2,3,4-tetrahydronaphthalen-1-ylamino)ethyl]-4-(1H-1,2,4-triazol-1-yl)benzamide]",6.30 to 7.30,6.30 to 7.30,6.30 to 7.30
"O=C(CNC(=O)C(NC(=O)C(c1ccccc1)C1CCCC1)c1cccnc1)NC1CCCc2ccccc21 (stereo not drawn) [Entry 55, N˜2˜-[{[cyclopentyl(phenyl)acetyl]amino}(pyridin-3-yl)acetyt]-N-(1,2,3,4-tetrahydronaphthalen-1-yl)glycinamide]",< 5.30,< 5.30,< 5.30
"O=C(COc1ccc(Cl)cc1)NCC(=O)NC1CCCc2ccccc21 (stereo not drawn) [Entry 34, N˜2˜-{[(4-chlorophenyl)oxy]acetyl}-N-(1,2,3,4-tetrahydronaphthalen-1-yl)glycinamide]",< 5.30,5.30 to 6.30,< 5.30
"CCOCCCNC(=O)c1ccc(C(=O)NCC2COc3ccccc3O2)cc1N (stereo not drawn) [Entry 62, 2-amino-N-˜4˜-(2,3-dihydro-1,4-benzodioxin-2-ylmethyl)-N˜1˜-[3-(ethyloxy)propyl]benzene-1,4-dicarboxamide]",< 5.30,< 5.30,< 5.30
"COc1ccc2nc(NC(=O)CCCNC(=O)Cn3cnc4sc5c(c4c3=O)CCCC5)sc2c1 [Entry 23, N-[6-(methyloxy)-1,3-benzothiazol-2-yl]-4-{[(4-oxo-5,6,7,8-tetrahydro[1]benzothieno[2,3-d]pyrimidin-3(4H)-yl)acetyl]amino}butanamide]",6.30 to 7.30,6.30 to 7.30,5.30 to 6.30
